Holding throughout (assay type): in vivo
The test system of experiment [1] is Galium aparine. Description: Herbicidal action (Example 25). The conditions noted are these: post-emergence, postemergence, 4.0 kg/ha, read-out: percentage damage. The gist of the method: (§1)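 Seeds sown by species in sandy loam were treated preemergence right after sowing, or postemergence at 2 to 8 cm plant height, with compounds suspended or emulsified in water and sprayed through fine nozzles. Greenhouse at 12°-25° C. or 18°-35° C. per species; visual damage scored 0–100 after 2 to 6 weeks.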

The test system of experiment [2] is Alopecurus myosuroides. Nature of the experiment: Herbicidal action (Example 25). The note with it: for pest or weed control at 1000 g/ha / pest or weed control at 2000 g/ha / pest or weed control at 4000 g/ha / pest or weed control at 8000 g/ha: Alopecurus myosuroides, read-out: percentage damage; for pest or weed control at 1000 g/ha: 1.0 kg/ha; for pest or weed control at 2000 g/ha: 2.0 kg/ha; for pest or weed control at 8000 g/ha: 8.0 kg/ha. The procedure, abridged: as §1

Experiment [3] has as its system Sinapis alba. Description: Herbicidal action (Example 25). The note with it: read-out: percentage damage; for pest or weed control at 1000 g/ha: 1.0 kg/ha; for pest or weed control at 2000 g/ha: 2.0 kg/ha. The procedure, abridged: as §1
Experiment [4] has as its system Echinochloa crus galli. Description: Herbicidal action (Example 25). The procedure, abridged: as §1
For experiment [5], the system named is tomatoes. Description: Action on tomatoes (Example 22). The conditions noted are these: leaf; for Plant height: 14 days; for Plant height relative: control 100. As for the experimental part: Tomatoes were grown in the greenhouse in glass dishes 11.5 cm in diameter containing a peat substrate which was provided with an adequate supply of nutrients. The active ingredients were sprayed onto the leaves in conventional manner at a plant height of 9 to 12 cm.

In experiment [6] the test system is Setaria faberii. Nature of the experiment: Herbicidal action (Example 25). The note with it: preemergence. The procedure, abridged:
as §1

Experiment [7] relates to Sorghum halepense. Nature of the experiment: Herbicidal action (Example 25). The note with it: preemergence. The gist of the method: as §1
The test system of experiment [8] is Datura stramonium. Nature of the experiment: Herbicidal action (Example 25). The conditions noted are these: postemergence. The procedure, abridged:
as §1

Experiment [9] deals with Eleusine indica. Nature of the experiment: Herbicidal action (Example 25). The note with it: postemergence. The gist of the method:
as §1

Experiment [10] has as its system Digitaria sanguinalis. Nature of the experiment: Herbicidal action (Example 25). The conditions noted are these: postemergence. The procedure, abridged:
as §1

[11] abbreviates: pre-emergence, preemergence, 4.0 kg/ha.
Where [12] appears, read: post-emergence, postemergence, 4.0 kg/ha.

Like-named read-outs stand apart in the source and are kept apart here.

Regarding `COc1ccc(NC(=O)N(C)C)cc1Cl`, the pest or weed control at 4000 g/ha in [1] was found to be 50%. Besides, the pest or weed control at 1000 g/ha in experiment [2] (post-emergence, postemergence) came out at 70%; in experiment [2] (pre-emergence, preemergence), 0%; in experiment [3] (post-emergence, postemergence), 100%; in [3] (pre-emergence, preemergence) it was 90%. The pest or weed control at 2000 g/ha in experiment [2] (post-emergence, postemergence) is 70%; in experiment [2] (pre-emergence, preemergence), 0%; in experiment [3] (post-emergence, postemergence), 100%; in experiment [3] (pre-emergence, preemergence), 90%. Also, the percentage damage is 100 percentage damage in experiment [4] (postemergence, 1.0 kg/ha); 100 percentage damage in [4] (postemergence, 2.0 kg/ha); 80 percentage damage in experiment [4] (preemergence, 1.0 kg/ha); 90 percentage damage in experiment [4] (preemergence, 2.0 kg/ha).

Turning to `O=C(Nc1ccc(Cl)c(Cl)c1)C1CC1`, the pest or weed control at 4000 g/ha in [1] stood at 0%. The pest or weed control at 1000 g/ha in experiment [2] (post-emergence, postemergence) stood at 80%; in [2] (pre-emergence, preemergence), 0%; in experiment [3] (post-emergence, postemergence), 100%; in experiment [3] (pre-emergence, preemergence), 60%. Further, the pest or weed control at 2000 g/ha came out at 30% in experiment [2] (post-emergence, postemergence); 0% in experiment [2] (pre-emergence, preemergence); 100% in [3] (post-emergence, postemergence); 60% in [3] (pre-emergence, preemergence). The percentage damage came to 100 percentage damage in experiment [4] (postemergence, 1.0 kg/ha); 100 percentage damage in experiment [4] (postemergence, 2.0 kg/ha); 80 percentage damage in [4] (preemergence, 1.0 kg/ha); 90 percentage damage in experiment [4] (preemergence, 2.0 kg/ha).

Turning to `CCc1cccc(CC)c1N(COC)C(=O)CCl`, the pest or weed control at 4000 g/ha in experiment [1] stood at 0%. In addition, the pest or weed control at 1000 g/ha was 40% in experiment [2] (post-emergence, postemergence); 20% in [2] (pre-emergence, preemergence); 0% in experiment [3] (post-emergence, postemergence); 0% in experiment [3] (pre-emergence, preemergence). The pest or weed control at 2000 g/ha in [2] (post-emergence, postemergence) came out at 50%; in [2] (pre-emergence, preemergence) it was 78%; in experiment [3] (post-emergence, postemergence), 0%; in experiment [3] (pre-emergence, preemergence), 0%. Further, the percentage damage in experiment [4] (postemergence, 1.0 kg/ha) is recorded as 98 percentage damage; in experiment [4] (postemergence, 2.0 kg/ha), 98 percentage damage; in experiment [4] (preemergence, 1.0 kg/ha), 100 percentage damage; in experiment [4] (preemergence, 2.0 kg/ha) it was 100 percentage damage.

On to `Clc1ccc(N2N=NC3C4CC(C5N=NC45)C32)cc1` (stereo not drawn) [drawing 402], for which the Plant height in experiment [5] (1.5 kg/ha) was 24.3 cm; in [5] (3.0 kg/ha), 20.3 cm; in [5] (6.0 kg/ha) it was 14.0 cm. Further, the Plant height relative in experiment [5] (1.5 kg/ha) turned out to be 89.3; in [5] (3.0 kg/ha), 74.6; in experiment [5] (6.0 kg/ha), 51.5.

For `Brc1ccc(N2N=NC3C4CC(C5N=NC45)C32)cc1` (stereo not drawn) [drawing 403], the Plant height in experiment [5] (1.5 kg/ha) is given as 25.0 cm; in experiment [5] (3.0 kg/ha), 22.7 cm; in experiment [5] (6.0 kg/ha), 15.3 cm. Moreover, the values for the Plant height relative in experiment [5] (1.5 kg/ha), in experiment [5] (3.0 kg/ha) and in experiment [5] (6.0 kg/ha) were 91.9, 83.5 and 56.2, respectively.

As for `c1ccc(CN2N=NC3C4CC(C5N=NC45)C32)cc1` (stereo not drawn) [drawing 417], the percentage damage was 80 percentage damage in [6] (2.0 kg/ha), 90 percentage damage in experiment [6] (4.0 kg/ha), 90 percentage damage in experiment [7] (2.0 kg/ha) and 90 percentage damage in [7] (4.0 kg/ha). In addition, the pest or weed control at 2000 g/ha in [3] (pre-emergence, preemergence) came out at 80%. The pest or weed control at 4000 g/ha in experiment [3] (setting [11]) amounted to 95%.

For `CC(C)OC(=O)Nc1cccc(Cl)c1` [drawing 423], the percentage damage in experiment [8] (2.0 kg/ha) turned out to be 30 percentage damage; in experiment [8] (4.0 kg/ha), 40 percentage damage; in experiment [8] (8.0 kg/ha), 60 percentage damage; in experiment [9] (2.0 kg/ha) it was 50 percentage damage; in [9] (4.0 kg/ha), 50 percentage damage; in [9] (8.0 kg/ha), 50 percentage damage. Moreover, the percentage damage in experiment [10] (2.0 kg/ha) came out at 80 percentage damage; in [10] (4.0 kg/ha), 80 percentage damage; in experiment [10] (8.0 kg/ha) it was 90 percentage damage. In addition, the pest or weed control at 2000 g/ha in [2] (post-emergence, postemergence) was found to be 25%; in experiment [2] (pre-emergence, preemergence), 95%. The pest or weed control at 4000 g/ha in [2] (setting [12]) came out at 25%; in [2] (setting [11]), 95%. Besides, the pest or weed control at 8000 g/ha in experiment [2] (post-emergence, postemergence) is 30%; in experiment [2] (pre-emergence, preemergence), 98%.

On to `CN(C)C(=O)Nc1ccc(Oc2ccccc2)cc1` [drawing 424], for which the percentage damage in experiment [8] (2.0 kg/ha) is reported as 95 percentage damage; in [8] (4.0 kg/ha) it was 95 percentage damage; in [8] (8.0 kg/ha), 100 percentage damage; in experiment [9] (2.0 kg/ha), 40 percentage damage; in experiment [9] (4.0 kg/ha) it was 50 percentage damage; in [9] (8.0 kg/ha), 50 percentage damage. Further, the percentage damage in experiment [10] (2.0 kg/ha) came to 50 percentage damage; in experiment [10] (4.0 kg/ha), 70 percentage damage; in experiment [10] (8.0 kg/ha) it was 90 percentage damage. In addition, the pest or weed control at 2000 g/ha was 15% in experiment [2] (post-emergence, postemergence) and 30% in [2] (pre-emergence, preemergence). For the same molecule, the pest or weed control at 4000 g/ha in [2] (setting [12]) was 22%; in experiment [2] (setting [11]) it was 25%. Also, the pest or weed control at 8000 g/ha was determined as 38% in [2] (post-emergence, postemergence) and 25% in experiment [2] (pre-emergence, preemergence).

On to `c1ccc(N2N=NC3C4CC(C5N=NC45)C32)cc1` (stereo not drawn) [drawing 429], for which the percentage damage in [8] (2.0 kg/ha) amounted to 60 percentage damage; in experiment [8] (4.0 kg/ha), 95 percentage damage; in experiment [8] (8.0 kg/ha), 100 percentage damage; in experiment [9] (2.0 kg/ha), 90 percentage damage; in experiment [9] (4.0 kg/ha), 90 percentage damage; in experiment [9] (8.0 kg/ha) it was 90 percentage damage. Moreover, the percentage damage in [2] (preemergence, 4.0 kg/ha) worked out at 75 percentage damage; in experiment [10] (2.0 kg/ha), 60 percentage damage; in experiment [10] (4.0 kg/ha), 70 percentage damage; in [10] (8.0 kg/ha), 80 percentage damage. Besides, the pest or weed control at 2000 g/ha in experiment [2] (post-emergence, postemergence) came out at 15%; in [2] (pre-emergence, preemergence), 70%. In addition, the pest or weed control at 4000 g/ha in [2] (setting [12]) came to 38%. Moreover, the pest or weed control at 8000 g/ha in [2] (post-emergence, postemergence) was 45%; in experiment [2] (pre-emergence, preemergence), 90%.

For the molecule `c1csc(N2N=NC3C4CC(C5N=NC45)C32)n1` (stereo not drawn) [drawing 430], the percentage damage in experiment [8] (2.0 kg/ha) came to 50 percentage damage; in experiment [8] (4.0 kg/ha), 60 percentage damage; in [8] (8.0 kg/ha) it was 65 percentage damage; in [9] (2.0 kg/ha), 60 percentage damage; in experiment [9] (4.0 kg/ha) it was 60 percentage damage; in experiment [9] (8.0 kg/ha), 70 percentage damage. Also, the percentage damage is on record as 60 percentage damage in [10] (2.0 kg/ha), 60 percentage damage in experiment [10] (4.0 kg/ha) and 80 percentage damage in experiment [10] (8.0 kg/ha). Also, the pest or weed control at 2000 g/ha is 32% in experiment [2] (post-emergence, postemergence) and 70% in [2] (pre-emergence, preemergence). Further, the pest or weed control at 4000 g/ha in experiment [2] (setting [12]) turned out to be 40%; in experiment [2] (setting [11]), 88%. The pest or weed control at 8000 g/ha in experiment [2] (post-emergence, postemergence) amounted to 50%; in experiment [2] (pre-emergence, preemergence) it was 100%.

These data come from US4257941A, “Polycyclic nitrogen-containing compounds” (BASF Aktiengesellschaft, priority 1976, dated 1981).
